The nature of series [1]: TFV and TFVDP levels in clinical samples (whole blood, plasma) of treated patients by micro-LC-MS/MS. The class given is in vivo. The note with it: patient 10, tenofovir alafenamide 25 mg, 12 to 24 h after dosing. As to the method: Blood samples were collected, with informed consent, from 11 HIV-infected patients treated with tenofovir, 12 to 24 h after dosing. Two patients (numbers 10 and 11) received tenofovir alafenamide 25 mg, the others being administered with tenofovir disoproxil fumarate 245 mg.
Blood samples were collected from HIV-positive patients at the National Institute for Infectious Diseases “Prof Dr. Matei Bals”, with the approval of the Bioethical Committee (protocol code C10242/02.10.2024, approved 18 October 2024). All patients were under treatment with anti-retroviral drugs, and sampling was performed from 12 to 24 h after dosing.
Blood samples (4 mL each) were collected using potassium EDTA (sampling tubes EDTAK3, 4.0 mL, Englober SRL, Brasov, Romania) or sodium citrate (9NC sampling tubes, BD, Plymouth, UK) as anticoagulants. Aliquots of 0.5 mL were used for plasma separation, by centrifugation (5 min, 3900 rpm), within 60 min from sampling. […] All samples were frozen at −30 °C until analyzed. […]
Analyses were performed in positive electrospray ionization mode. The chromatographic trace 288.054/176.0 was used for TFV quantification, while TFVDP was monitored on the trace 447.942/176.0. Mass transitions 288.054/135.9 and 447.942/270.0 were also used for confirmation of the measured compounds. […]

Series [2] is described as follows: Validation stability of TFV and TFVDP in spiked whole blood and sample extracts. Format: in vitro ADME. The note with it: for Stability, Sample extracts 24 h 10 °C: autosampler; for Stability, Sample extracts 24 h 10 °C / Stability, Blood 4 h room temp. / Stability, Blood freeze-thaw 5 cycles / Stability, Blood at −30 °C for 1 month: the values are: stability, % of nominal; for Stability, Blood at −30 °C for 1 month: blood diluted 1:5 with 1.25% ammonia. How it is done:
Samples were stable for 1 month at −30 °C, for 5 freeze–thaw cycles and for 24 h at 10 °C in the autosampler. Benchtop stability was evaluated for 4 h at room temperature with blood samples spiked with TFVDP only and the results were within 96.9 and 104.714 from nominal in stabilized conditions, while in the absence of the phosphatase inhibitor the degradation was, on average, 85% at all tested concentrations. Calibration curves were linear for both TFV and TFVDP, with correlation coefficients > 0.995.
Spiked calibration standards (CC) and quality control (QC) samples were prepared in whole blood diluted 1:5 with ultrapure water containing 1.25% ammonia (v/v). TFV concentrations were as follows: 0–0.25–1–4–16–64–128–256 ng/mL (CC) and 0.75–15–210 ng/mL (QC Low, Medium and High, respectively). TFVDP concentrations were as follows: 0–0.5–2–8–32–128–256–512 ng/mL (CC) and 1.5–30–420 ng/mL (QC Low, Medium and High, respectively).
Blank blood was frozen at −80 °C before use; therefore, cells were lysed. CCs and QCs were built in blood diluted 1 + 4 with water and alkalinized with 1.25% ammonia, for phosphatases inhibition. Patient samples received identical treatment before undergoing the sample preparation protocol, ensuring uniform composition across samples.
The method for quantifying TFV and TFVDP in whole blood was validated in terms of selectivity, linearity, accuracy, precision, limits of quantification, sample stability under storage and processing conditions, extraction recovery, and matrix effects, in accordance with the April 2022 ICH guidelines, subsequently adopted by the FDA in November 2022 [38]. The analytical ranges to be validated were chosen based upon the expected concentrations as found in literature and from in-house preliminary experiments. Matrix effects were evaluated comparing the signal of theoretical QC concentrations prepared in mobile phase (taken as 100% recovery) against those obtained after spiking blank extracts at identical concentrations. Matrix factors were calculated for each analyte, and isotope-labelled internal standards were employed to correct for residual matrix influence.

On the set-up of series [3]: method as in PMID 21118913, PMID 30137238, PMID 25065857. The note with it: in red blood cells (RBC); cited from earlier work.
Series [4] can be described thus: TFVDP stability in blood spiked without stabilizers (degradation by phosphatases). Format: in vitro ADME. The note with it: degrades to TFVMP and TFV. How it is done:
A series of experiments was conducted to evaluate this degradation by phosphatases and counteract it. TFVDP only (1 or 2 µg/mL) was added to blood or plasma; 50 µL aliquots were extracted in the presence of isotope-labeled internal standards, and the formation of TFV and […] was monitored, together with TFVDP degradation. […] The extent of the phenomenon is illustrated in Figure 3. The first attempt to reduce phosphatases activity was performing all the sample preparation procedures on ice bath. No significant improvement was observed.
Figure 3 Extracted ion chromatograms overlay (A) recorded on the MRM transitions of TFV (B), TFVMP (C) and TFVDP (D) and their corresponding deuterated internal standards in an extracted sample (as described in paragraph 3.5). Blood sample diluted 1:5 with water and spiked with 520 ng/mL TFVDP in a non-stabilized sample (left) and with phosphatases inhibition (right). High peaks of TFMP were observed only after a short time (30 min) at room temperature without enzyme inhibition.

[5] abbreviates: QC High (n = 4; TFV 210, TFVDP 420 ng/mL).
Setting [6] is: QC Low (n = 4; TFV 0.75, TFVDP 1.5 ng/mL).

The values that follow come from PMC12195941, “Novel Micro-LC-MS/MS Method for the Quantification of Tenofovir and Its Active Metabolite Tenofovir-Diphosphate in Biological Matrices for Therapeutic Drug Monitoring” (Pharmaceuticals, 2025).

`C[C@H](Cn1cnc2c(N)ncnc21)OCP(=O)(O)O` [TFV, Tenofovir]: in series [1], the “Level in clinical sample, Blood” value is on record as “BLQ”. The Stability, Sample extracts 24 h 10 °C came out at 90.7% in series [2] (QC High (n = 4)) and 94.4% in series [2] (QC Low (n = 4)). In addition, the Stability, Blood 4 h room temp. in series [2] (QC High (n = 4)) turned out to be 101%; in series [2] (QC Low (n = 4)) it was 102%. In addition, the Stability, Blood freeze-thaw 5 cycles in series [2] (QC High (n = 4)) amounted to 111%; in series [2] (QC Low (n = 4)) it was 114%. In addition, the Stability, Blood at −30 °C for 1 month in series [2] (setting [5]) amounted to 112%; in series [2] (setting [6]), 104%.
For the compound `C[C@H](Cn1cnc2c(N)ncnc21)OCP(=O)(O)OP(=O)(O)OP(=O)(O)O` [TFVDP, tenofovir diphosphate], the half-life (in general, the time in which the quantity being followed falls by half) in series [3] was 17 days. Besides, the “Stability of added diphosphate metabolite in blood” value in series [4] is recorded as “unstable in blood”. In addition, the “Degradation in the absence of the phosphatase inhibitor” value in series [2] (4 h at room temperature, blood spiked with TFVDP only, average at all tested concentrations) is 85%. For the same compound, the Stability, Sample extracts 24 h 10 °C is 94.3% in series [2] (QC High (n = 4)) and 105% in series [2] (QC Low (n = 4)). Further, the Stability, Blood 4 h room temp. was found to be 96.9% in series [2] (QC High (n = 4)) and 105% in series [2] (QC Low (n = 4)). Moreover, the Stability, Blood freeze-thaw 5 cycles in series [2] (QC High (n = 4)) came to 95.4%; in series [2] (QC Low (n = 4)) it was 111%. For the same compound, the Stability, Blood at −30 °C for 1 month in series [2] (setting [5]) stood at 106%; in series [2] (setting [6]), 92.5%.
